Values joined by “and” are separate entries in the source; they are usually repeats but may differ in a detail not shown here. Identical values can stand only once.
Experiment: Single-dose pharmacokinetics of T+Ai pellet implant (80 mg testosterone + 4 mg anastrozole, subcutaneous)
Details: for concentration at 24 h: 24 h post-dose
Procedure: The premenopausal women were aged between 35 and 55 years of age with a BMI range of 20-30 kg/m^2. […] The implant was intended to be left in situ and was expected to be almost completely absorbed within three months following insertion.
A total of 11 subjects were dosed with the implant and included in the safety analysis set. All 11 subjects were included in the pharmacokinetics (PK) analysis set.
(NB: the sample collection time point at 6 hours post-dose was added for the third and subsequent subject and so serum measurements were not determined for the first two subjects as noted below).
Patients seeking treatment with the T+Ai for reduction in high MBD were eligible for the study. Following successful screening, subjects attended the Wellend Health Clinic for dosing. The trial was designed to dose all subjects while in the luteal phase of their menstrual cycle to avoid the highly changing hormonal environment of the follicular phase. Following insertion of the implant, PK blood sampling was carried out for a duration of three months (see below). Briefly, samples were taken repeatedly on the day of dosing, daily during the first week, weekly for the next four weeks and every second week during the last eight weeks of a total sampling period of three months.
The sampling schedule was revised with the addition of one blood sample (at 6 hours post-dose as discussed above), and no adjustment of the timing of existing time points was made. The duration of sampling was not extended.
Following dosing on Day 1, blood samples were taken pre-dose (within one hour of dosing) and at 1, 2, 4, 6, 8 and 12 hours. Participants returned for a blood sample to be taken at 9 am in the morning on Days 2, 3, 4, 5, 8, 15, 22, 29, 43, 57, 71 and 85.

For `CC(C)(C#N)c1cc(Cn2cncn2)cc(C(C)(C)C#N)c1` [Anastrozole, 2,2′-[5-(1H-1,2,4-triazol-1-ylmethyl)-1,3-phenylene]bis(2-methylpropanenitrile)], the “anastrozole level versus conventional full oral dosing” value (compared with conventional full oral dosing) was 5 times lower, the Tmax (human, in vivo, sc, 4 mg) was 24 to 72 h and the concentration at 1008 h (human, in vivo, sc, 4 mg, Measured serum anastrozole, GeoMean, geometric mean (BLQ excluded), 1008 h post-dose) was 0.49 ng/mL. It also gave a concentration at 1344 h (human, in vivo, sc, 4 mg, Measured serum anastrozole, GeoMean, geometric mean (BLQ excluded), 1344 h post-dose) of 0.3 ng/mL, a concentration at 1680 h (human, in vivo, sc, 4 mg, Measured serum anastrozole, GeoMean, geometric mean (BLQ excluded), 1680 h post-dose) of 0.26 ng/mL and a concentration at 2016 h (human, in vivo, sc, 4 mg, Measured serum anastrozole, GeoMean, geometric mean (BLQ excluded), 2016 h post-dose) of 0.21 ng/mL. The concentration at 1 h (human, in vivo, sc, 4 mg, Measured serum anastrozole, GeoMean, geometric mean, 1 h post-dose) was 0.35 ng/mL, the concentration at 2 h (human, in vivo, sc, 4 mg, Measured serum anastrozole, GeoMean, geometric mean, 2 h post-dose) was 0.61 ng/mL and the concentration at 4 h (human, in vivo, sc, 4 mg, Measured serum anastrozole, GeoMean, geometric mean, 4 h post-dose) was 1.15 ng/mL. For the same compound, the concentration at 6 h (human, in vivo, sc, 4 mg, Measured serum anastrozole, GeoMean, geometric mean, 6 h post-dose) was 2.31 ng/mL, the concentration at 8 h (human, in vivo, sc, 4 mg, Measured serum anastrozole, GeoMean, geometric mean, 8 h post-dose) was 3.23 ng/mL and the concentration at 12 h (human, in vivo, sc, 4 mg, Measured serum anastrozole, GeoMean, geometric mean, 12 h post-dose) was 3.97 ng/mL. For the same compound, the concentration at 24 h (human, in vivo, sc, 4 mg, Measured serum anastrozole, GeoMean, geometric mean) was 4.77 ng/mL, the concentration at 48 h (human, in vivo, sc, 4 mg, Measured serum anastrozole, GeoMean, geometric mean, 48 h post-dose) was 4.98 ng/mL and the concentration at 72 h (human, in vivo, sc, 4 mg, Measured serum anastrozole, GeoMean, geometric mean, 72 h post-dose) was 4.92 ng/mL. The concentration at 96 h (human, in vivo, sc, 4 mg, Measured serum anastrozole, GeoMean, geometric mean, 96 h post-dose) was 4.58 ng/mL, the concentration at 168 h (human, in vivo, sc, 4 mg, Measured serum anastrozole, GeoMean, geometric mean, 168 h post-dose) was 3.5 ng/mL and the concentration at 504 h (human, in vivo, sc, 4 mg, Measured serum anastrozole, GeoMean, geometric mean, 504 h post-dose) was 1.42 ng/mL. The concentration at 24 h (human, in vivo, sc, 4 mg, Measured serum anastrozole, individual subject) was 6.08 ng/mL, the concentration at 48 h (human, in vivo, sc, 4 mg, Measured serum anastrozole, individual subject, 48 h post-dose) was 6.17 ng/mL and the concentration at 72 h (human, in vivo, sc, 4 mg, Measured serum anastrozole, individual subject, 72 h post-dose) was 4.94 ng/mL. For the same compound, the concentration at 96 h (human, in vivo, sc, 4 mg, Measured serum anastrozole, individual subject, 96 h post-dose) was 4.36 ng/mL, the concentration at 168 h (human, in vivo, sc, 4 mg, Measured serum anastrozole, individual subject, 168 h post-dose) was 2.84 ng/mL and the concentration at 1 h (human, in vivo, sc, 4 mg, Measured serum anastrozole, mean, 1 h post-dose) was 0.38 ng/mL. It also gave a concentration at 2 h (human, in vivo, sc, 4 mg, Measured serum anastrozole, mean, 2 h post-dose) of 0.7 ng/mL, a concentration at 4 h (human, in vivo, sc, 4 mg, Measured serum anastrozole, mean, 4 h post-dose) of 1.37 ng/mL and a concentration at 6 h (human, in vivo, sc, 4 mg, Measured serum anastrozole, mean, 6 h post-dose) of 2.58 ng/mL. For the same compound, the concentration at 8 h (human, in vivo, sc, 4 mg, Measured serum anastrozole, mean, 8 h post-dose) was 3.44 ng/mL, the concentration at 12 h (human, in vivo, sc, 4 mg, Measured serum anastrozole, mean, 12 h post-dose) was 4.06 ng/mL and the concentration at 24 h (human, in vivo, sc, 4 mg, Measured serum anastrozole, mean) was 4.84 ng/mL. The concentration at 48 h (human, in vivo, sc, 4 mg, Measured serum anastrozole, mean, 48 h post-dose) was 5.06 ng/mL, the concentration at 72 h (human, in vivo, sc, 4 mg, Measured serum anastrozole, mean, 72 h post-dose) was 4.96 ng/mL and the concentration at 96 h (human, in vivo, sc, 4 mg, Measured serum anastrozole, mean, 96 h post-dose) was 4.62 ng/mL. The concentration at 168 h (human, in vivo, sc, 4 mg, Measured serum anastrozole, mean, 168 h post-dose) was 3.57 ng/mL, the concentration at 504 h (human, in vivo, sc, 4 mg, Measured serum anastrozole, mean, 504 h post-dose) was 1.47 ng/mL and the concentration at 1008 h (human, in vivo, sc, 4 mg, Measured serum anastrozole, mean, 1008 h post-dose) was 0.49 ng/mL. It also gave a concentration at 1344 h (human, in vivo, sc, 4 mg, Measured serum anastrozole, mean, 1344 h post-dose) of 0.22 ng/mL, a concentration at 1680 h (human, in vivo, sc, 4 mg, Measured serum anastrozole, mean, 1680 h post-dose) of 0.1 ng/mL and a concentration at 2016 h (human, in vivo, sc, 4 mg, Measured serum anastrozole, mean, 2016 h post-dose) of 0.04 ng/mL. The concentration at 1 h (human, in vivo, sc, 4 mg, Measured serum anastrozole, median, 1 h post-dose) was 0.32 ng/mL, the concentration at 2 h (human, in vivo, sc, 4 mg, Measured serum anastrozole, median, 2 h post-dose) was 0.62 ng/mL and the concentration at 4 h (human, in vivo, sc, 4 mg, Measured serum anastrozole, median, 4 h post-dose) was 1.12 ng/mL. It also gave a concentration at 6 h (human, in vivo, sc, 4 mg, Measured serum anastrozole, median, 6 h post-dose) of 3.08 ng/mL, a concentration at 8 h (human, in vivo, sc, 4 mg, Measured serum anastrozole, median, 8 h post-dose) of 3.5 ng/mL and a concentration at 12 h (human, in vivo, sc, 4 mg, Measured serum anastrozole, median, 12 h post-dose) of 4.32 ng/mL. The concentration at 24 h (human, in vivo, sc, 4 mg, Measured serum anastrozole, median) was 4.96 ng/mL, the concentration at 48 h (human, in vivo, sc, 4 mg, Measured serum anastrozole, median, 48 h post-dose) was 5.05 ng/mL and the concentration at 72 h (human, in vivo, sc, 4 mg, Measured serum anastrozole, median, 72 h post-dose) was 4.92 ng/mL. For the same compound, the concentration at 96 h (human, in vivo, sc, 4 mg, Measured serum anastrozole, median, 96 h post-dose) was 4.6 ng/mL, the concentration at 168 h (human, in vivo, sc, 4 mg, Measured serum anastrozole, median, 168 h post-dose) was 3.58 ng/mL and the concentration at 504 h (human, in vivo, sc, 4 mg, Measured serum anastrozole, median, 504 h post-dose) was 1.36 ng/mL. For the same compound, the concentration at 1008 h (human, in vivo, sc, 4 mg, Measured serum anastrozole, median, 1008 h post-dose) was 0.4 ng/mL, the concentration at 1344 h (human, in vivo, sc, 4 mg, Measured serum anastrozole, median, 1344 h post-dose) was 0.16 ng/mL and the concentration at 2016 h (human, in vivo, sc, 4 mg, plasma anastrozole concentration after 12 weeks, below limit of quantitation in most participants after 12 weeks) was under 0.1 ng/mL. The Measured serum anastrozole (individual subject, 1 h post-dose, 60 min) was 0.215 ng/mL and 0.525 ng/mL and 0.218 ng/mL and 0.515 ng/mL and 0.394 ng/mL and 0.127 ng/mL and 0.855 ng/mL and 0.321 ng/mL and 0.243 ng/mL and 0.751 ng/mL, the Measured serum anastrozole (individual subject, 2 h post-dose, 120 min) was 0.404 ng/mL and 0.615 ng/mL and 1.30 ng/mL and 0.887 ng/mL and 0.831 ng/mL and 0.306 ng/mL and 1.04 ng/mL and 0.596 ng/mL and 0.509 ng/mL and 0.180 ng/mL and 1.02 ng/mL and the Measured serum anastrozole (individual subject, 4 h post-dose, 240 min) was 1.03 ng/mL and 2.97 ng/mL and 2.23 ng/mL and 0.902 ng/mL and 1.50 ng/mL and 0.582 ng/mL and 2.11 ng/mL. For the same compound, the Measured serum anastrozole (individual subject, 6 h post-dose, 360 min) was 3.11 ng/mL and 3.07 ng/mL and 3.42 ng/mL (2×) and 1.63 ng/mL and 3.21 ng/mL and 1.62 ng/mL and 0.651 ng/mL, the Measured serum anastrozole (individual subject, 8 h post-dose, 480 min) was 4.28 ng/mL and 3.41 ng/mL and 3.48 ng/mL and 4.75 ng/mL and 4.16 ng/mL and 2.18 ng/mL and 3.66 ng/mL and 3.33 ng/mL and 1.06 ng/mL and 3.99 ng/mL and the Measured serum anastrozole (individual subject, 12 h post-dose, 720 min) was 5.13 ng/mL and 3.27 ng/mL and 4.42 ng/mL and 3.87 ng/mL and 3.32 ng/mL and 4.86 ng/mL and 4.18 ng/mL and 2.25 ng/mL. For the same compound, the Measured serum anastrozole (individual subject, 48 h post-dose, 2880 min) was 3.95 ng/mL and 5.85 ng/mL and 5.58 ng/mL and 6.07 ng/mL and 4.85 ng/mL and 3.31 ng/mL and 5.28 ng/mL, the Measured serum anastrozole (individual subject, 72 h post-dose, 4320 min) was 4.72 ng/mL and 5.16 ng/mL and 5.00 ng/mL and 6.29 ng/mL and 5.68 ng/mL and 4.76 ng/mL and 3.66 ng/mL and 4.85 ng/mL and the Measured serum anastrozole (individual subject, 96 h post-dose, 5760 min) was 4.12 ng/mL and 4.67 ng/mL and 5.17 ng/mL. The Measured serum anastrozole (individual subject, 168 h post-dose, 10080 min) was 4.35 ng/mL, the Measured serum anastrozole (individual subject, 504 h post-dose, 30240 min) was 1.70 ng/mL and 1.83 ng/mL and 1.59 ng/mL and the Measured serum anastrozole (individual subject, 1008 h post-dose, 60480 min) was 0.332 ng/mL and 0.665 ng/mL and 0.505 ng/mL and 0.624 ng/mL. The Measured serum anastrozole (individual subject, 1344 h post-dose, 80640 min) was 0.144 ng/mL and 0.279 ng/mL, the Measured serum anastrozole (individual subject, 1680 h post-dose, 100800 min) was 0.143 ng/mL and the “Measured serum anastrozole, mean” value (mean, pre-dose) was 0.00 ng/mL. For the same compound, the “Measured serum anastrozole, median” value (median, pre-dose) was 0.00 ng/mL, the “average Cmax, plasma anastrozole” value (plasma) was 5.30 ng/mL and the “average terminal half-life, anastrozole” value (plasma) was 336 h. The “median Tmax for plasma anastrozole” value (plasma, post-dose) was 48 h.

Reference: patent US20260315494A1, “TREATMENT OF BREAST TISSUE” (Havah Therapeutics Pty Ltd, priority 2023, published 2026)
